Experimental findings from ChEMBL document CHEMBL1155107, “Oxidative transformation of 2-acetylaminofluorene by a chemical model for cytochrome P450: A water-insoluble porphyrin and tert-butyl hydroperoxide” (Bioorg Med Chem, 2008) are described below.

For this data set, the system named is Salmonella typhimurium. Description: Toxicity in Salmonella Typhimurium TA1538 assessed as induction of mutagenicity using cytochrome P450 chemical model after 44 hrs by Ames test. The note with it: salmonella enterica subsp. enterica serovar typhimurium. In kind it is organism-based. In general terms: The Ames test detects mutagens through reverse mutation in bacteria.

For the molecule `CC(=O)Nc1ccc2c(c1)Cc1ccccc1-2` [2-ACETYLAMINOFLUORENE], the Activity result is reported as “Dose-dependent effect”.
